{"source": "patent US7851474B2", "about": "“Dipiperazinyl ketones and related analogues” (Neurogen Corporation, priority 2005, dated 2010)", "data": [{"target": "T1, chimeric human H3 receptor (Homo sapiens, UniProt Q9Y5N1, E19D)", "T1 construct": "made in house; host or cells: Sf9 insect cells (baculovirus infection); P2 membrane preparation", "T1 sequence (Q9Y5N1 with tags, fused parts or gaps E19D)": "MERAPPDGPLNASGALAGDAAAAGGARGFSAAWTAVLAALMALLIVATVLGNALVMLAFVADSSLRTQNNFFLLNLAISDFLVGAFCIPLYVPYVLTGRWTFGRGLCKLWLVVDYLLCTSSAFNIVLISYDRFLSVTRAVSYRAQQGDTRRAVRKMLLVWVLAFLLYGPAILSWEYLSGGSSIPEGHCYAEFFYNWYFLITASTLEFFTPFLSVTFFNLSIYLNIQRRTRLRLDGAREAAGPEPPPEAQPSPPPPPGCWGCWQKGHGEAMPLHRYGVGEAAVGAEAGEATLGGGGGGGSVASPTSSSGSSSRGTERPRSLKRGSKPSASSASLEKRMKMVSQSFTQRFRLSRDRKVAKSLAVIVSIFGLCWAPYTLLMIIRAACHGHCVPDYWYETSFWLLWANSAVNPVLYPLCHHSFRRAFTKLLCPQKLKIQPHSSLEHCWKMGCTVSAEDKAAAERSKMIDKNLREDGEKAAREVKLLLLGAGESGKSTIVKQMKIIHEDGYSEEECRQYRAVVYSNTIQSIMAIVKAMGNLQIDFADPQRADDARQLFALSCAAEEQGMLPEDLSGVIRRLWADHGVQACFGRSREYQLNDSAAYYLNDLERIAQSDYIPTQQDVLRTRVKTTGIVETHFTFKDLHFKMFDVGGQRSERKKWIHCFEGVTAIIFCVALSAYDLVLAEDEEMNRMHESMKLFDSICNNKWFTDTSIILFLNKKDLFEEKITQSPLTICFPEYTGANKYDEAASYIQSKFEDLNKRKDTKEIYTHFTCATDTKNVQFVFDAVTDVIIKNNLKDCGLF", "test": "Chimeric human H3 receptor GTP binding assay (agonist-stimulated GTP-gamma35S binding, Example 7)", "format": "biochemical", "conditions": "assay of Example 7; \"*\" in Ki of Table II; read-out: Ki", "outline": "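Sf9 membranes co-expressing the chimeric receptor and heterotrimeric G-protein subunits, 35 μg protein per tube, in pH 7.4 Tris buffer with 10 μM GDP. Test compounds at 10^−10 to 10^−6 M with 1 μM histamine, 60 min at room temperature. Filter-bound GTP-gamma^35S read by scintillation; IC50 from non-linear regression of dose-response curves.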", "units": {"Ki": "nM"}, "values": [{"compound": "CSc1ccc(C(=O)NC2CCN(CC(=O)N3CCN(C4CCC4)CC3)C2)cc1", "note": "(centres unmarked) [Compound 1241, N-{1-[2-(4-cyclobutylpiperazin-1-yl)-2-oxoethyl]pyrrolidin-3-yl}-4-(methylthio)benzamide]", "Ki": "< 1000"}, {"compound": "CCSc1ccc(C(=O)NC2CCN(CC(=O)N3CCN(C4CCC4)CC3)C2)cc1", "note": "(centres unmarked) [Compound 1242, N-{1-[2-(4-cyclobutylpiperazin-1-yl)-2-oxoethyl]pyrrolidin-3-yl}-4-(ethylthio)benzamide]", "Ki": "< 1000"}, {"compound": "COc1ccc(C(=O)NC2CCN(CC(=O)N3CCN(C4CCC4)CC3)C2)cc1F", "note": "(centres unmarked) [Compound 1243, N-{1-[2-(4-cyclobutylpiperazin-1-yl)-2-oxoethyl]pyrrolidin-3-yl}-3-fluoro-4-methoxybenzamide]", "Ki": "< 1000"}, {"compound": "O=C(NC1CCN(CC(=O)N2CCN(C3CCC3)CC2)C1)c1ccc(Oc2ccccc2)cc1", "note": "(centres unmarked) [Compound 1244, N-{1-[2-(4-cyclobutylpiperazin-1-yl)-2-oxoethyl]pyrrolidin-3-yl}-4-phenoxybenzamide]", "Ki": "< 1000"}, {"compound": "CC(C)CC(=O)NC1CCN(CC(=O)N2CCN(C3CCC3)CC2)C1", "note": "(centres unmarked) [Compound 1246, N-{1-[2-(4-cyclobutylpiperazin-1-yl)-2-oxoethyl]pyrrolidin-3-yl}-3-methylbutanamide]", "Ki": "< 1000"}, {"compound": "CC(C)CCC(=O)NC1CCN(CC(=O)N2CCN(C3CCC3)CC2)C1", "note": "(centres unmarked) [Compound 1247, N-{1-[2-(4-cyclobutylpiperazin-1-yl)-2-oxoethyl]pyrrolidin-3-yl}-4-methylpentanamide]", "Ki": "< 1000"}, {"compound": "O=C(CC1CCCC1)NC1CCN(CC(=O)N2CCN(C3CCC3)CC2)C1", "note": "(centres unmarked) [Compound 1248, N-{1-[2-(4-cyclobutylpiperazin-1-yl)-2-oxoethyl]pyrrolidin-3-yl}-2-cyclopentylacetamide]", "Ki": "< 1000"}, {"compound": "O=C(CC1CCCCC1)NC1CCN(CC(=O)N2CCN(C3CCC3)CC2)C1", "note": "(centres unmarked) [Compound 1249, N-{1-[2-(4-cyclobutylpiperazin-1-yl)-2-oxoethyl]pyrrolidin-3-yl}-2-cyclohexylacetamide]", "Ki": "< 1000"}, {"compound": "O=C(CCC1CCCC1)NC1CCN(CC(=O)N2CCN(C3CCC3)CC2)C1", "note": "(centres unmarked) [Compound 1250, N-{1-[2-(4-cyclobutylpiperazin-1-yl)-2-oxoethyl]pyrrolidin-3-yl}-3-cyclopentylpropanamide]", "Ki": "< 1000"}, {"compound": "CCC(C)CC(=O)NC1CCN(CC(=O)N2CCN(C3CCC3)CC2)C1", "note": "(centres unmarked) [Compound 1251, N-{1-[2-(4-cyclobutylpiperazin-1-yl)-2-oxoethyl]pyrrolidin-3-yl}-3-methylpentanamide]", "Ki": "< 1000"}, {"compound": "CC(C)(C)CC(=O)NC1CCN(CC(=O)N2CCN(C3CCC3)CC2)C1", "note": "(centres unmarked) [Compound 1252, N-{1-[2-(4-cyclobutylpiperazin-1-yl)-2-oxoethyl]pyrrolidin-3-yl}-3,3-dimethylbutanamide]", "Ki": "< 1000"}, {"compound": "O=C(NC1CCN(CC(=O)N2CCN(C3CCC3)CC2)C1)c1ccccc1", "note": "(centres unmarked) [Compound 1253, N-{1-[2-(4-cyclobutylpiperazin-1-yl)-2-oxoethyl]pyrrolidin-3-yl}benzamide]", "Ki": "< 1000"}, {"compound": "O=C(NC1CCN(CC(=O)N2CCN(C3CCC3)CC2)C1)c1ccc(-c2ccccc2)cc1", "note": "(centres unmarked) [Compound 1254, N-{1-[2-(4-cyclobutylpiperazin-1-yl)-2-oxoethyl]pyrrolidin-3-yl}biphenyl-4-carboxamide]", "Ki": "< 1000"}, {"compound": "O=C(NC1CCN(CC(=O)N2CCN(C3CCC3)CC2)C1)C1CC2CCC1C2", "note": "(centres unmarked) [Compound 1255, N-{1-[2-(4-cyclobutylpiperazin-1-yl)-2-oxoethyl]pyrrolidin-3-yl}bicyclo[2.2.1]heptane-2-carboxamide]", "Ki": "< 1000"}, {"compound": "O=C(NC1CCN(CC(=O)N2CCN(C3CCC3)CC2)C1)C1CCCCC1", "note": "(centres unmarked) [Compound 1256, N-{1-[2-(4-cyclobutylpiperazin-1-yl)-2-oxoethyl]pyrrolidin-3-yl} cyclohexanecarboxamide]", "Ki": "< 1000"}, {"compound": "CCCCC(=O)NC1CCN(CC(=O)N2CCN(C3CCC3)CC2)C1", "note": "(centres unmarked) [Compound 1257, N-{1-[2-(4-cyclobutylpiperazin-1-yl)-2-oxoethyl]pyrrolidin-3-yl}pentanamide]", "Ki": "< 1000"}, {"compound": "CC(=O)NC1CCN(CC(=O)N2CCN(C3CCCC3)CC2)C1", "note": "(centres unmarked) [Compound 1258, N-{1-[2-(4-cyclopentylpiperazin-1-yl)-2-oxoethyl]pyrrolidin-3-yl}acetamide]", "Ki": "< 1000"}, {"compound": "CC(=O)NC1CCN(CC(=O)N2CCN(C(C)C)CC2)C1", "note": "(centres unmarked) [Compound 1259, N-{1-[2-(4-isopropylpiperazin-1-yl)-2-oxoethyl]pyrrolidin-3-yl}acetamide]", "Ki": "< 1000"}, {"compound": "C=CCNC(=O)c1cccc(N2CCN(CC(=O)N3CCN(C4CCC4)CC3)CC2)c1", "note": "[Compound 1260, N-allyl-3-{4-[2-(4-cyclobutylpiperazin-1-yl)-2-oxoethyl]piperazin-1-yl}benzamide]", "Ki": "< 1000"}, {"compound": "C=CCNC(=O)c1ccc(N2CCN(CC(=O)N3CCN(C4CCC4)CC3)CC2)cc1", "note": "[Compound 1261, N-allyl-4-{4-[2-(4-cyclobutylpiperazin-1-yl)-2-oxoethyl]piperazin-1-yl}benzamide]", "Ki": "< 1000"}, {"compound": "C=CCNC(=O)c1ccc(N2CCN(CC(=O)N3CCN(C4CCC4)CC3)CC2)nc1", "note": "[Compound 1262, N-allyl-6-{4-[2-(4-cyclobutylpiperazin-1-yl)-2-oxoethyl]piperazin-1-yl}nicotinamide]", "Ki": "< 1000"}, {"compound": "CCCCNC(=O)c1cccc(N2CCN(CC(=O)N3CCN(C4CCC4)CC3)CC2)c1", "note": "[Compound 1263, N-butyl-3-{4-[2-(4-cyclobutylpiperazin-1-yl)-2-oxoethyl]piperazin-1-yl}benzamide]", "Ki": "< 1000"}, {"compound": "CCCCNC(=O)c1ccc(N2CCN(CC(=O)N3CCN(C4CCC4)CC3)CC2)cc1", "note": "[Compound 1264, N-butyl-4-{4-[2-(4-cyclobutylpiperazin-1-yl)-2-oxoethyl]piperazin-1-yl}benzamide]", "Ki": "< 1000"}, {"compound": "CCCCNC(=O)c1ccc(N2CCN(CC(=O)N3CCN(C4CCC4)CC3)CC2)nc1", "note": "[Compound 1265, N-butyl-6-{4-[2-(4-cyclobutylpiperazin-1-yl)-2-oxoethyl]piperazin-1-yl}nicotinamide]", "Ki": "< 1000"}, {"compound": "O=C(NC1CCC1)c1cccc(N2CCN(CC(=O)N3CCN(C4CCC4)CC3)CC2)c1", "note": "[Compound 1266, N-cyclobutyl-3-{4-[2-(4-cyclobutylpiperazin-1-yl)-2-oxoethyl]piperazin-1-yl}benzamide]", "Ki": "< 1000"}, {"compound": "O=C(NC1CCC1)c1ccc(N2CCN(CC(=O)N3CCN(C4CCC4)CC3)CC2)nc1", "note": "[Compound 1268, N-cyclobutyl-6-{4-[2-(4-cyclobutylpiperazin-1-yl)-2-oxoethyl]piperazin-1-yl}nicotinamide]", "Ki": "< 1000"}, {"compound": "CC(=O)c1ccc(N2C[C@@H](C)N(CC(=O)N3CCN(C4CCC4)CC3)[C@@H](C)C2)cc1", "note": "[Compound 1270, rel-1-(4-{(3R,5S)-4-[2-(4-cyclobutylpiperazin-1-yl)-2-oxoethyl]-3,5-dimethylpiperazin-1-yl}phenyl)ethanone]", "Ki": "< 1000"}, {"compound": "N-{1-[2-(4- cyclobutylpiperazin-1-yl)- 2-oxoethyl]piperldin-4-yl}- 2-naphthamide [Compound 1207]", "Ki": "< 1000"}]}, {"target": "T1, chimeric human H3 receptor", "test": "Chimeric human H3 receptor screening GTP binding assay (inhibition of histamine-stimulated GTP-gamma35S binding, Example 8)", "format": "biochemical", "conditions": "1 h; assay described in Example 8; symbol + in column headed Ki of Table II; read-out: percent inhibition of agonist-induced GTP-gammaS binding to H3", "description": "This Example illustrates a representative screening assay for evaluating inhibition of histamine-stimulated GTP-gamma^35S binding. Such GTP binding activity can be used to identify H3 antagonists and inverse agonists. A compound analyzed in this assay is referred to herein as a “test compound,” and the initial identification of antagonists and inverse agonists is performed using a test compound concentration of 4 μM.\nFour independent baculoviral stocks (one directing the expression of the chimeric human H3 receptor and three directing the expression of each of the three subunits of a heterotrimeric G-protein) are used to infect a culture of Sf9 cells as described above. P2 membranes are prepared as described above, and are resuspended by Dounce homogenization (tight pestle) in GTP binding assay buffer (50 mM Tris pH 7.4, 120 mM NaCl, 5 mM MgCl2, 2 mM EGTA, 1 mg/ml BSA, 0.2 mg/ml bacitracin, 0.02 mg/ml aprotinin, 0.01 mg/ml saponin, 10 μM GDP) and added to assay tubes at a concentration of 35 μg protein/reaction tube. Non-radiolabeled test compounds are added to separate reactions at a concentration of 4 μM along with 1 μM histamine (agonist). Reactions are initiated by the addition of 125 pM GTP-gamma^35S with a final assay volume of 0.20 ml.\nAfter a 60-min incubation at room temperature, reactions are terminated by vacuum filtration over GF/C filters (pre-soaked in 50 mM Tris pH 7.4, 120 mM NaCl plus 0.1% BSA) followed by washing with ice-cold buffer (50 mM Tris pH 7.4, 120 mM NaCl). The amount of receptor-bound (and thereby membrane-bound) GTP-gamma^35S is determined by measuring the bound radioactivity, preferably by liquid scintillation spectrometry of the washed filters. Non-specific binding is determined using 10 uM GTP-gammaS and typically represents less than 5 percent of total binding. After subtraction of non-specific binding, data is expressed as percent inhibition of 1 μM histamine signal.\nNeutral antagonists are those test compounds that reduce the histamine-stimulated GTP binding activity towards, but not below, baseline levels. In contrast, in the absence of added histamine, inverse agonists reduce the GTP binding activity of the receptor-containing membranes below baseline. Any test compound that elevates GTP binding activity above baseline in the absence of added histamine in this assay is defined as having agonist activity.", "units": {"inhibition at 4 µM": "%"}, "values": [{"compound": "O=C(CN1CCN(C(=O)c2cccnc2Sc2ccc(Cl)cc2)CC1)N1CCN(C2CCC2)CC1", "note": "[Compound 256, 1-({2-[(4-chlorophenyl)thio]pyridin-3-yl}carbonyl)-4-[2-(4-cyclobutylpiperazin-1-yl)-2-oxoethyl]piperazine]", "inhibition at 4 µM": "> 90"}, {"compound": "O=C(Cc1ccc2c(c1)OCO2)N1CCN(CC(=O)N2CCN(C3CCC3)CC2)CC1", "note": "[Compound 259, 1-(1,3-benzodioxol-5-ylacetyl)-4-[2-(4-cyclobutylpiperazin-1-yl)-2-oxoethyl]piperazine]", "inhibition at 4 µM": "> 90"}, {"compound": "O=C(CN1CCN(C(=O)c2ccc3c(c2)OCO3)CC1)N1CCN(C2CCC2)CC1", "note": "[Compound 260, 1-(1,3-benzodioxol-5-ylcarbonyl)-4-[2-(4-cyclobutylpiperazin-1-yl)-2-oxoethyl]piperazine]", "inhibition at 4 µM": "> 90"}, {"compound": "O=C(CN1CCN(C(=O)c2cc3ccccc3s2)CC1)N1CCN(C2CCC2)CC1", "note": "[Compound 261, 1-(1-benzothien-2-ylcarbonyl)-4-[2-(4-cyclobutylpiperazin-1-yl)-2-oxoethyl]piperazine]", "inhibition at 4 µM": "> 90"}]}]}
